The source of these data is US7141251B2, “Pharmacologically active strong acid solutions” (Cytorex Biosciences, inc., priority 2001, dated 2006).

A short description of data set [1]: Example 27: patient with hypertension. Particulars: 180/110 without medication.
For data set [2] the following is noted: in water; cited from earlier work.

Regarding `CC(C)NCC(O)COc1ccc(CC(N)=O)cc1` (stereo not drawn) [Atenolol], the blood pressure in data set [1] was 150/90.
Turning to `O=C(O)C(=O)O` [Formulation H2C2O4, oxalic acid], in data set [2], the “Grade of Ionization (α)” value is “α = 1”.
For the molecule `O=C(O)CC(O)(CC(=O)O)C(=O)O` [Formulation H8C6O7, citric acid], the “Grade of Ionization (α)” value in data set [2] is given as “α < 1”.
